Laboratory results published in PubChem BioAssay (NCI).
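Following 48 hours of exposure in 96-well plates, responses at five concentrations were used to interpolate endpoints linearly. Here, GI50 denotes the concentration required for 50% inhibition of growth. TGI marks complete inhibition of growth.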

Legend:
Assay in all cases: NCI-60 cell line screen, 48 h
[1] = system: MALME-3M melanoma
[2] = system: HT29 colon
[3] = system: MCF7 breast
[4] = system: T-47D breast
[5] = system: NCI-H522 lung
[6] = system: LOX IMVI melanoma
[7] = system: OVCAR-5 ovarian
[8] = system: OVCAR-3 ovarian
[9] = system: HCT-15 colon
[10] = system: EKVX NSCLC
[11] = system: MDA-MB-231 breast
[12] = system: 786-0 renal
[13] = system: RPMI-8226 leukemia
[14] = system: DU-145 prostate
[15] = system: RXF 393 renal
[16] = system: A498 renal
[17] = system: K-562 leukemia
[18] = system: SK-OV-3 ovarian
[19] = system: NCI/ADR-RES ovarian
[20] = system: HS 578T breast
[21] = system: SNB-19 CNS
[22] = system: SF-295 CNS
[23] = system: OVCAR-4 ovarian
[24] = system: SNB-75 CNS
[25] = system: UACC-257 melanoma
[26] = system: CCRF-CEM leukemia
[27] = system: PC-3 prostate
[28] = system: SF-268 CNS
[29] = system: COLO 205 colon
[30] = system: TK-10 renal
[31] = system: HL-60(TB) leukemia
[32] = system: NCI-H460 lung
[33] = system: HCC-2998 colon
[34] = system: MDA-N
[35] = system: SW-620 colon
[36] = system: CAKI-1 renal
[37] = system: SF-539 CNS
[38] = system: MDA-MB-435
[39] = system: A549 NSCLC
[40] = system: UO-31 renal
[41] = system: U251 CNS
[42] = system: SK-MEL-28 melanoma
[43] = system: SN12C renal
[44] = system: M14 melanoma
[45] = system: ACHN renal
[46] = system: SK-MEL-5 melanoma
[47] = system: HOP-62 NSCLC
[48] = system: MOLT-4 leukemia
[49] = system: SR leukemia
[50] = system: SK-MEL-2 melanoma
[51] = system: NCI-H23 lung
[52] = system: UACC-62 melanoma
[53] = system: KM12 colon
[54] = system: HCT-116 colon
[55] = system: IGROV1 ovarian
[56] = system: NCI-H226 lung
[57] = system: OVCAR-8 ovarian

`FC1(F)ON2CCc3ccccc3C2[C@H]1c1ccccc1` (some centres not stated) gave a GI50 [1] of 14.5 µM, a TGI [1] of 88.8 µM and a GI50 [2] greater than 100 µM. For the same compound, the TGI [2] was greater than 100 µM, the GI50 [3] was greater than 100 µM and the TGI [3] was greater than 100 µM. It also gave a TGI [4] greater than 100 µM, a GI50 [5] greater than 100 µM and a TGI [5] greater than 100 µM. It also gave a TGI [6] greater than 100 µM, a GI50 [7] greater than 100 µM and a TGI [7] greater than 100 µM. The TGI [8] was greater than 100 µM, the GI50 [9] was greater than 100 µM and the TGI [9] was greater than 100 µM. The GI50 [10] was greater than 100 µM, the TGI [10] was greater than 100 µM and the TGI [11] was greater than 100 µM. For the same compound, the TGI [12] was 96.7 µM, the GI50 [13] was greater than 100 µM and the TGI [13] was greater than 100 µM. For the same compound, the GI50 [14] was greater than 100 µM, the TGI [14] was greater than 100 µM and the TGI [15] was greater than 100 µM. For the same compound, the GI50 [16] was greater than 100 µM, the TGI [16] was greater than 100 µM and the GI50 [17] was greater than 100 µM. For the same compound, the TGI [17] was greater than 100 µM, the GI50 [18] was greater than 100 µM and the TGI [18] was greater than 100 µM. For the same compound, the TGI [19] was greater than 100 µM, the GI50 [20] was 45.9 µM and the TGI [20] was greater than 100 µM. It also gave a GI50 [21] greater than 100 µM, a TGI [21] greater than 100 µM and a GI50 [22] greater than 100 µM. It also gave a TGI [22] greater than 100 µM, a GI50 [23] greater than 100 µM and a TGI [23] greater than 100 µM. The TGI [24] was 70.8 µM, the GI50 [25] was greater than 100 µM and the TGI [25] was greater than 100 µM. It also gave a TGI [26] greater than 100 µM, a GI50 [27] greater than 100 µM and a TGI [27] greater than 100 µM. It also gave a GI50 [28] greater than 100 µM, a TGI [28] greater than 100 µM and a GI50 [29] greater than 100 µM. It also gave a TGI [29] greater than 100 µM, a GI50 [30] greater than 100 µM and a TGI [30] greater than 100 µM. The GI50 [31] was greater than 100 µM, the TGI [31] was greater than 100 µM and the GI50 [32] was greater than 100 µM. For the same compound, the TGI [32] was greater than 100 µM, the GI50 [33] was greater than 100 µM and the TGI [33] was greater than 100 µM. It also gave a GI50 [34] greater than 100 µM, a TGI [34] greater than 100 µM and a GI50 [35] greater than 100 µM. For the same compound, the TGI [35] was greater than 100 µM, the GI50 [36] was greater than 100 µM and the TGI [36] was greater than 100 µM. The TGI [37] was greater than 100 µM, the GI50 [38] was greater than 100 µM and the TGI [38] was greater than 100 µM. For the same compound, the GI50 [39] was greater than 100 µM, the TGI [39] was greater than 100 µM and the TGI [40] was greater than 100 µM. For the same compound, the TGI [41] was greater than 100 µM, the GI50 [42] was greater than 100 µM and the TGI [42] was greater than 100 µM. The GI50 [43] was greater than 100 µM, the TGI [43] was greater than 100 µM and the TGI [44] was greater than 100 µM. It also gave a GI50 [45] greater than 100 µM, a TGI [45] greater than 100 µM and a GI50 [46] greater than 100 µM. For the same compound, the TGI [46] was greater than 100 µM, the TGI [47] was greater than 100 µM and the GI50 [48] was greater than 100 µM. The TGI [48] was greater than 100 µM, the GI50 [49] was greater than 100 µM and the TGI [49] was greater than 100 µM. The GI50 [50] was greater than 100 µM, the TGI [50] was greater than 100 µM and the GI50 [51] was greater than 100 µM. It also gave a TGI [51] greater than 100 µM, a GI50 [52] greater than 100 µM and a TGI [52] greater than 100 µM. It also gave a GI50 [53] greater than 100 µM, a TGI [53] greater than 100 µM and a TGI [54] greater than 100 µM. For the same compound, the GI50 [55] was greater than 100 µM, the TGI [55] was greater than 100 µM and the TGI [56] was greater than 100 µM. It also gave a TGI [57] greater than 100 µM.
